Measured values as given in US20240225971A1 (Genomatica, Inc., priority 2021, published 2024).
In brackets after ≈: the same amount, converted by molar mass. Like-named read-outs stand apart in the source and are kept apart here.

Tests used:
physchem = experiment: physchem
Excerpt: The term “fragrance composition” or “composition,” as used herein, represents a composition containing one or more fragrance ingredients described here and formulated with a physiologically acceptable diluent or solvent, used interchangeably here. In a fragrance composition, or composition that has a fragrance, such as a perfume, 20%-40% of the observable liquid may be comprised of a diluent, i.e., the delivery system for scents of the fragrance ingredients. The “log P” value, as used here, indicates whether a substance or fragrance ingredient will be absorbed by humans, animals, plants, or living tissue; diffused or disseminated by water.
(§1) Also included is the molecular weight of each of the fragrance ingredients. Not determinable (ND).

[1] = Water solubility at 25° C. of fragrance ingredients
Excerpt: as §1

[2] = Vapor pressure of fragrance ingredients
Excerpt: as §1

[3] = Flash point of fragrance ingredients; type: physicochemical
Excerpt: as §1

[4] = Clarity of fragrance ingredient in bioderived 1,3-BG by visual observation
[5] = 10% ingredient in bioderived 1,3-BG, clear, slightly haze, cloudy, particles, or separation

SMILES | logP (physchem) | Water Solubility ([1]; 25° C.) | Vapor Pressure [2] | Flash Point [3] | Clarity 10% [4, 5] | Water Solubility [1] | Clarity 1% [4] | Clarity 10% [4] | solubility ([1]; water, 25 °C) | solubility ([1]; 25 °C, water)
CCCCCCCCCC=O [Aldehyde C-10] | 3.97 | 43.520 µg/mL | 0.207 mm hg | 82 °C | – | – | – | – | – | –
C=CCCCCCCCCC=O [Aldehyde C-11 Undecylenic] | 4.072 | 30.000 µg/mL | 0.039 mm hg | 76 °C | – | – | – | – | – | –
CCCCCCCCCCCC=O [Aldehyde C-12 Lauric] | 4.989 | 4.649 µg/mL | 0.034 mm hg | 116 °C | Clear | – | – | – | – | –
CCCCCCCCCC(C)C=O (stereo not shown) [Aldehyde C-12 MNA] | 4.834 | 5.372 µg/mL | 4.834 mm hg | 69 °C | Clear | – | – | – | – | –
C=CCOC(=O)COCCC(C)C [Allyl Amyl Glycolate] | 2.7 | 510.700 µg/mL | 0.04 mm hg | 93 °C | – | – | – | – | – | –
CC1(O)CCC2C(=CCCC2(C)C)C1 (stereo not shown) [Ambrinol] | 3.785 | – | 0.0005 mm hg | 100 °C | Clear | 134.300 µg/mL | – | – | – | –
CC1(C)CCC[C@]2(C)[C@H]3CCO[C@]3(C)CC[C@@H]12 [Ambrox Super (Ambroxan), Ambroxan] | – | – | 0.009 mm hg | 100 °C | Particles | – | – | – | – | –
CC=Cc1ccc(OC)cc1 [Anethole] | – | – | 0.069 mm hg | 110 °C | Cloudy | – | – | – | – | –
COc1ccc(C=O)cc1 [Anisic Aldehyde] | – | – | 1 mm hg | 116 °C | Clear | 4290.000 µg/mL | – | – | – | –
COc1ccc(COC(C)=O)cc1 [Anisyl Acetate] | 1.887 | 782.900 µg/mL | 0.021 mm hg | 135 °C | – | – | Clear | Clear | – | –
CC/C(=C\CC1CC=C(C)C1(C)C)CO (stereo not shown) [Bacdanol] | 4.3 | 17.000 µg/mL | 0.00028 mm hg | 199 °C | Clear | – | – | – | – | –
CC(=O)OCc1ccccc1 [Benzyl Acetate] | – | – | 0.177 mm hg | 91 °C | Clear | – | – | – | – | –
CC1C(C)(C)C2=C(C(=O)CCC2)C1(C)C (stereo not shown) [Cashmeran] | 4.5 | 5.937 µg/mL | 0.003 mm hg | 94 °C | Clear | – | – | – | – | –
N#C/C=C/c1ccccc1 [Cinnamalva] | 1.84 | – | 0.023 mm hg | 94 °C | Clear | 1067.000 µg/mL | – | – | – | –
CC/C=C\CCO [Cis-3-Hexenol] | 1.7 | – | 1.039 mm hg | 44 °C | Clear | – | – | – | – | –
CC/C=C\CCOC(=O)c1ccccc1O [Cis-3-Hexenyl Salicylate] | 4.4 | – | 0.000246 mm hg | 110 °C | Cloudy | – | – | – | 9.52 µg/mL (≈ 43.2 µM) | –
CC(C)=CCCC(C)=CC=O [Citral] | – | – | 0.2 mm hg | 98 °C | Clear | – | – | – | – | –
CC1=CC(C)C(C=O)CC1 (stereo not shown) [Cyclal C/Triplal] | 3 | – | 0.578 mm hg | 66 °C | Clear | 311.500 µg/mL | – | – | – | –

SMILES | logP (physchem) | Water Solubility ([1]; 25° C.) | Vapor Pressure [2] | Flash Point [3] | Clarity 10% [4, 5] | Water Solubility [1] | Clarity 1% [4] | Clarity 10% [4] | solubility ([1]; water, 25 °C) | solubility ([1]; 25 °C, water)
c1ccc(COCc2ccccc2)cc1 [Dibenzyl Ether] | 3.31 | – | 0.00103 mm hg | 93 °C | Cloudy | – | – | – | 40 µg/mL (≈ 202 µM) | –
C=CC(C)CCCC(C)(C)O (stereo not shown) [Dihydro Myrcenol] | 2.99 | 252.200 µg/mL | 0.166 mm hg | 76 °C | Clear | – | – | – | – | –
CC(C)CCCC(C)(C)O [Dimetol] | 2.976 | 777.000 µg/mL | 0.33 mm hg | 63 °C | Clear | – | – | – | – | –
CCOc1cc(C=O)ccc1O [Ethyl Vanillin] | – | – | 0.001 mm hg | 127 °C | Clear | 2820.000 µg/mL | – | – | – | –
O=C1CCCCCCCCCCCC(=O)OCCO1 [Ethylene Brassylate] | 2.77 | – | 0 mm hg | 110 °C | Cloudy | – | – | – | 1.72 µg/mL (≈ 6.36 µM) | –
CC12CCC(CC1)C(C)(C)O2 [Eucalyptol] | 2.74 | – | 1.9 mm hg | 50 °C | Clear | – | – | – | 3500 µg/mL (≈ 22700 µM) | –
CCOC(=O)CC1(C)OCCO1 [Fructone] | 0.982 | 100.000 µg/mL | 0.219 mm hg | 93 °C | Clear | – | – | – | – | –
CC1COCc2cc3c(cc21)C(C)(C)C(C)C3(C)C (stereo not shown) [Galaxolide] | 5.92 | – | 0.000414 mm hg | 104 °C | Separation | – | – | – | – | 0.194 µg/mL (≈ 0.751 µM)
O=Cc1ccc2c(c1)OCO2 [Heliotropine] | 1.05 | – | 0.003 mm hg | 110 °C | – | 3500.000 µg/mL | Clear | Clear | – | –
CC(=O)C1(C)CC2=C(CCCC2(C)C)CC1C (stereo not shown) [Iso E Super] | 4.71 | – | 0.001 mm hg | 111 °C | Cloudy | – | – | – | – | –
CC(=O)OCCC(C)C [Isoamyl Acetate] | – | 2000.000 µg/mL | 5.6 mm hg | 38 °C | Clear | – | – | – | – | –
C=CC(C)(O)CCC=C(C)C (stereo not shown) [Linalool] | – | – | 0.016 mm hg | 75 °C | Clear | – | – | – | – | –
C=CC(C)(CCC=C(C)C)OC(C)=O (stereo not shown) [Linalyl Acetate] | 3.93 | – | 0.116 mm hg | 94 °C | – | – | Clear | – | – | 20.1 µg/mL
CC(=O)C(C)=CC1C(C)=CCCC1(C)C (stereo not shown) [Methyl Ionone Gamma] | 4.315 | – | 0.006 mm hg | 110 °C | Cloudy | 2.980 µg/mL | – | – | – | –
CC1CC=CCCCCCCCCCC(=O)C1 (stereo not shown) [Muscenone] | 4.88 | 0.346 µg/mL | 0.1 mm hg | 100 °C | Cloudy | – | – | – | – | –
COc1cc(C=O)ccc1O [Vanillin] | – | – | 0.002 mm hg | 153 °C | Clear | – | – | – | 6880 µg/mL (≈ 45200 µM) | –
CC(=O)C1=C(C)C2CC3(C1)C(C)CCC3C2(C)C (stereo not shown) [Vertofix Coeur] | 5.6 | – | 0.000084 mm hg | 100 °C | Cloudy | – | – | – | – | –
